Source: paper doi:10.1101/2025.04.09.647920v1, “TIR immune signaling is blocked by phosphorylation to maintain growth in plants and animals” (biorxiv, 2025)

Target: T1, RBA1 (Arabidopsis thaliana, UniProt F4HT77)
T1 construct: TIR-only protein, recombinant from insect cells
T1 sequence (F4HT77 1-363): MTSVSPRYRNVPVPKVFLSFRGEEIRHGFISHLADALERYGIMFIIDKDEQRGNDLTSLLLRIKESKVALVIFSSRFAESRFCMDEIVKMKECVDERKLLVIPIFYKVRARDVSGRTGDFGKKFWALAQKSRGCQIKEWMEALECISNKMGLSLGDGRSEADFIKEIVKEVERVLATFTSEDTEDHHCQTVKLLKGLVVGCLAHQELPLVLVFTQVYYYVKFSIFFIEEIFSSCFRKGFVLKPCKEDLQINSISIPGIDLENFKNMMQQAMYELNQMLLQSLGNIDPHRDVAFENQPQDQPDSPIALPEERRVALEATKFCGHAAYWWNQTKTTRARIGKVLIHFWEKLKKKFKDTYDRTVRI
Experiment: LC-MS/MS NADase assay
Format: biochemical
Details: in vitro

NC(=O)c1ccc[n+]([C@@H]2O[C@H](COP(=O)(O)OP(=O)(O)OC[C@H]3O[C@@H](n4cnc5c(N)ncnc54)[C@H](O)[C@@H]3O)[C@@H](O)[C@H]2O)c1 [NAD^+]
LC-MS/MS NADase assay: Recombinant RBA1 protein purified from insect cells cleaved NAD^+ into nicotinamide (Nam)
